Structures can show the parent of a compound that is named as a salt.

We go through 22 compounds from patent publication US8975250B2, “5 oxo-5,8-dihydropyrido[2,3-d]pyrimidine derivatives as CaMKII kinase inhibitors for treating cardiovascular diseases” (SANOFI, priority 2010, dated 2015).

One series concerns the target CaMKIIδ (Homo sapiens (Human), UniProt Q13557). The series is described as follows: radioactive test on the recombinant CaMKIIδ enzyme (ATP-γ33P incorporation into Autocamtide-2). In kind it is biochemical. Conditions: recombinant CaMKIIδ 0.37 nM, 10 μM ATP, 100 μM Autocamtide-2, two hours at 37°C. On the procedure:
The compounds according to the invention were tested in vitro for their capacity to inhibit the kinase function of calcium/calmodulin-dependent protein kinase II delta (CaMKIIδ). CaMKIIδis an intracellular serine/threonine kinase. It has an enzymatic domain that is capable of using ATP to autophosphorylate. Its kinase function allows it to use ATP to phosphorylate its substrates on the serines and/or threonines. Several enzymatic and cellular tests are used to evaluate the activity of the products with respect to the kinase function of CaMKIIδ. The kinase activity of CaMKIIδis evaluated by means of a radioactive test on the recombinant CaMKIIδenzyme. The amount of ATP-γ33P incorporated into the specific substrate Autocamtide-2 during its phosphorylation by CaMKIIδis measured. The effect of the products is quantified by the concentration of product that inhibits the total activity of CaMKIIδby 50% (50% inhibitory concentration=IC50). For the determination of the IC50 values, the product is diluted in 100% of DMSO to obtain a 10 mM stock solution. The concentration range tested during the radioactive test ranges from 3 to 10 000 nM with a final concentration in the test of 1% DMSO. This concentration range may, for the most powerful compounds, be extended to 0.1 nM. On the day of the operation, 5 μl of the compounds are deposited in each well of a 96-well plate at 10 times the concentration of that to be tested. Each concentration is tested in duplicate on the same plate. The negative controls (0% activity) and positive controls (100% activity) receive 5 μL of 10% DMSO solution. A reaction premix containing the 1×kinase buffer and an ATP-MgCl2 mixture is prepared. Extemporaneously, a mixture containing the substrate Autocamtide-2 (100 μM) with calmodulin and calcium, and the solution of enzyme CaMKIIδ, is added to the premix. 45 μL of this mixture are immediately deposited per well. The final concentrations in the 50 μL final volume are as follows: compound 1X, 0.37 nM of CaMKIIδ(Invitrogen reference PV3373), 10 μM of ATP (1 μCi per well), 100 μM of Autocamtide-2, […] of calmodulin, 15 mM MgCl2, 400 μM CaCl2, 10 mM β-glycerophosphate, and 1% of DMSO. Two negative controls are prepared on each plate, a first without enzyme CaMKIIδ, and a second without substrate Autocamtide-2; these two elements are replaced with water. The plate is then incubated for two hours at 37°C. with gentle shaking. The reaction is stopped by adding 20 μL per well of H3PO4 solution. The 50 μL of each well are transferred onto a Whatman P81 filter. After rinsing twice with H3PO4 (150 μl/well per wash), followed by two rinses with 150 μL of H2O, 50 μL of scintillant are added per well. The amount of phosphorylated substrate is detected by means of a liquid scintillation counter. The inhibitory activity toward CaMKIIδis given by the concentration that inhibits 50% of the activity of CaMKIIδ. The IC50 values are generally between 10 μM and 10^−5 μM. In the table below, the IC50 values measured for several compounds (I) of the invention are presented as examples.

One may read the melting point as the temperature, or range, at which the solid turns liquid. `CCN1CCN(c2cc(F)c(Nc3ncc4c(=O)c(C(N)=O)c(N)n(CC)c4n3)c(OC)c2)CC1` (as salt: HCl) [compound 28, 7-Amino-8-ethyl-2-[4-(4-ethylpiperazin-1-yl)-2-fluoro-6-methoxyphenylamino]-5-oxo-5,8-dihydropyrido[2,3-d]pyrimidine-6-carboxamide] returned a melting point of over 260 °C. Still for that read-out and setting: in the case of `CCn1c(N)c(C(N)=O)c(=O)c2cnc(Nc3ccc(C4CCN(C5CC5)CC4)cc3OC)nc21` (as salt: HCl) [compound 29, 7-Amino-2-[4-(1-cyclopropylpiperid-4-yl)-2-methoxyphenylamino]-8-ethyl-5-oxo-5,8-dihydropyrido[2,3-d]pyrimidine-6-carboxamide] it was 226 to 228 °C; in that of `CCn1c(N)c(C(N)=O)c(=O)c2cnc(Nc3ccc(N4CCN(C5CC5)CC4)cc3OC(F)F)nc21` (as salt: HCl) [compound 33, 7-Amino-2-[4-(4-cyclopropylpiperazin-1-yl)-2-difluoromethoxyphenylamino]-8-ethyl-5-oxo-5,8-dihydropyrido[2,3-d]pyrimidine-6-carboxamide], 204 to 206 °C.

Take `CCn1c(N)c(C(N)=O)c(=O)c2cnc(Nc3ccc(C4CCN(CCC(F)(F)F)CC4)cc3OC)nc21` (as salt: HCl) [compound 35, 7-Amino-8-ethyl-2-{2-methoxy-4-[1-(3,3,3-trifluoropropyl)piperid-4-yl]phenylamino}-5-oxo-5,8-dihydropyrido[2,3-d]pyrimidine-6-carboxamide]: the melting point was found to be 199 °C.

In turn, `CCn1c(N)c(C(N)=O)c(=O)c2cnc(Nc3ccc(CCN4CCCCC4)cc3)nc21` (as salt: HCl) [compound 65, 7-Amino-8-ethyl-5-oxo-2-[4-(2-piperid-1-ylethyl)phenylamino]-5,8-dihydropyrido[2,3-d]pyrimidine-6-carboxamide] had a melting point of 216 °C. In the case of `NCCCn1c(N)c(C(N)=O)c(=O)c2cnc(Nc3ccc(N4CCOCC4)cc3)nc21` (as salt: HCl) [compound 81, 7-Amino-8-(3-aminopropyl)-2-(4-morpholin-4-ylphenylamino)-5-oxo-5,8-dihydropyrido[2,3-d]pyrimidine-6-carboxamide], the melting point was 250 °C.

Regarding `COc1cc(C2CCNCC2)ccc1Nc1ncc2c(=O)c(C(N)=O)c(N)n(-c3ccccc3)c2n1` (as salt: HCl) [compound 113, 7-Amino-2-(2-methoxy-4-piperid-4-ylphenylamino)-5-oxo-8-phenyl-5,8-dihydropyrido[2,3-d]pyrimidine-6-carboxamide], the melting point is 228 °C (dec.). Turning to `CCN1CCN(c2ccc(Nc3ncc4c(=O)c(C(N)=O)c(N)n(CC(C)(C)O)c4n3)c(OC)c2)CC1` (as salt: HCl) [compound 129, 7-Amino-2-[4-(4-ethylpiperazin-1-yl)-2-methoxyphenylamino]-8-(2-hydroxy-2-methylpropyl)-5-oxo-5,8-dihydropyrido[2,3-d]pyrimidine-6-carboxamide], the melting point is 222 °C (dec.). `COc1cc(C2CCN(CCC(F)(F)F)CC2)ccc1Nc1ncc2c(=O)c(C(N)=O)c(N)n(CC(C)(C)O)c2n1` (as salt: HCl) [compound 130, 7-Amino-8-(2-hydroxy-2-methylpropyl)-2-{2-methoxy-4-[1-(3,3,3-trifluoropropyl)piperid-4-yl]phenylamino}-5-oxo-5,8-dihydropyrido[2,3-d]pyrimidine-6-carboxamide] came in with a melting point of over 260 °C. In the case of `COCCN1CCC(c2ccc(Nc3ncc4c(=O)c(C(N)=O)c(N)n(CC(C)(C)O)c4n3)c(OC)c2)CC1` (as salt: HCl) [compound 133, 7-Amino-8-(2-hydroxy-2-methylpropyl)-2-{2-methoxy-4-[1-(2-methoxyethyl)piperid-4-yl]phenylamino}-5-oxo-5,8-dihydropyrido[2,3-d]pyrimidine-6-carboxamide], the melting point is 170 °C (dec.). `COc1cc(C2CCN(C)CC2)ccc1Nc1ncc2c(=O)c(C(N)=O)c(N)n(-c3ccccc3)c2n1` (as salt: HCl) [compound 134, 7-Amino-2-[2-methoxy-4-(1-methylpiperid-4-yl)phenylamino]-5-oxo-8-phenyl-5,8-dihydropyrido[2,3-d]pyrimidine-6-carboxamide]: the melting point was 256 °C (dec.). Consider `CCn1c(N)c(C(N)=O)c(=O)c2cnc(Nc3ccc([C@@H]4C[C@H]4N(C)C)cc3)nc21` (racemic) (as salt: HCl) [compound 97, (±)-7-Amino-2-trans-[4-(2-dimethylaminocyclopropyl)phenylamino]-8-ethyl-5-oxo-5,8-dihydropyrido[2,3-d]pyrimidine-6-carboxamide], for which the melting point is 208 to 210 °C (dec.). For `CCn1c(N)c(C(N)=O)c(=O)c2cnc(Nc3ccc(O)cc3)nc21` [compound 1, 7-Amino-8-ethyl-2-(4-hydroxyphenylamino)-5-oxo-5,8-dihydropyrido[2,3-d]pyrimidine-6-carboxamide], the melting point was over 260 °C. One may read the IC50 as the concentration that inhibits the measured activity by half. For `CCn1c(N)c(C(N)=O)c(=O)c2cnc(Nc3ccc(C(=O)N4CCN(C)CC4)cc3)nc21` [compound 4, 7-Amino-8-ethyl-2-[4-(4-methylpiperazine-1-carbonyl)phenylamino]-5-oxo-5,8-dihydropyrido[2,3-d]pyrimidine-6-carboxamide], the half-maximal inhibitory concentration (IC50) at CaMKIIδ came to 260 nM.

For the compound `NC(=O)c1c(N)n(C2CCCC2)c2nc(Nc3ccc(N4CCOCC4)cc3)ncc2c1=O` [compound 8, 7-Amino-8-cyclopentyl-2-(4-morpholin-4-ylphenylamino)-5-oxo-5,8-dihydropyrido[2,3-d]pyrimidine-6-carboxamide], the melting point came out at 265 °C. In turn, `CCn1c(N)c(C(N)=O)c(=O)c2cnc(Nc3cccc(N4CCOCC4)c3)nc21` [compound 17, 7-Amino-8-ethyl-2-(3-morpholin-4-ylphenylamino)-5-oxo-5,8-dihydropyrido[2,3-d]pyrimidine-6-carboxamide] had a melting point of 195 °C.

In the case of `CCn1c(N)c(C(N)=O)c(=O)c2cnc(Nc3ccc(C4CCN(C5CC5)CC4)cc3OC)nc21` [compound 29, 7-Amino-2-[4-(1-cyclopropylpiperid-4-yl)-2-methoxyphenylamino]-8-ethyl-5-oxo-5,8-dihydropyrido[2,3-d]pyrimidine-6-carboxamide], the IC50 on CaMKIIδ was determined as 17 nM.

For `CCn1c(N)c(C(N)=O)c(=O)c2cnc(Nc3ccc(C4CCN(CCC(F)(F)F)CC4)cc3OC)nc21` [compound 35, 7-Amino-8-ethyl-2-{2-methoxy-4-[1-(3,3,3-trifluoropropyl)piperid-4-yl]phenylamino}-5-oxo-5,8-dihydropyrido[2,3-d]pyrimidine-6-carboxamide], the IC50 on CaMKIIδ worked out at 22 nM. Take `CC(C)Cn1c(N)c(C(N)=O)c(=O)c2cnc(Nc3ccc(CCN4CCOCC4)cc3)nc21` [compound 52, 7-Amino-8-isobutyl-2-[4-(2-morpholin-4-ylethyl)phenylamino]-5-oxo-5,8-dihydropyrido[2,3-d]pyrimidine-6-carboxamide]: the IC50 at CaMKIIδ is 139 nM.

Compound `CCn1c(N)c(C(N)=O)c(=O)c2cnc(Nc3ccc(CCO)cc3)nc21` [compound 55, 7-Amino-8-ethyl-2-[4-(2-hydroxyethyl)phenylamino]-5-oxo-5,8-dihydropyrido[2,3-d]pyrimidine-6-carboxamide] registered a melting point of 289 °C. With `CN(C)Cc1ccc(Nc2ncc3c(=O)c(C(N)=O)c(N)n(CC(F)(F)F)c3n2)cc1` [compound 60, 7-Amino-2-(4-dimethylaminomethylphenylamino)-5-oxo-8-(2,2,2-trifluoroethyl)-5,8-dihydropyrido[2,3-d]pyrimidine-6-carboxamide], the IC50 on CaMKIIδ was 663 nM. Turning to `CCn1c(N)c(C(N)=O)c(=O)c2cnc(Nc3ccc(N4CCC(N5CCCC5)CC4)c(Cl)c3)nc21` [compound 61, 7-Amino-2-[3-chloro-4-(4-pyrrolidin-1-ylpiperid-1-yl)phenylamino]-8-ethyl-5-oxo-5,8-dihydropyrido[2,3-d]pyrimidine-6-carboxamide], the IC50 on CaMKIIδ was 8 nM.
